Results reported in patent US7348305B2, “Inhibitor of cardiac tachyarrhythmias” (Department of Veterans Affairs, Rehabilitation, priority 2003, dated 2008).

Columns and labels:
congestive heart failure = settings: cited from earlier work
[1] = test system: myeloperoxidase (MPO) activity; assay: Leukocyte infiltration by myeloperoxidase (MPO) activity, Model 2; assay type: in vivo, dog; settings: etanercept pretreated
Procedure: Calculated Oxygen Requirement and Leukocyte Infiltration: The animal's oxygen requirement was estimated by calculation of the double product (heart rate x mean arterial pressure). The myocardial activity of myeloperoxidase (MPO), an enzyme occurring virtually exclusively in neutrophils, was determined by using a modification of the method of Bradley (Mullane et al., 1985). Change in absorbance was measured spectrophotometrically in the supernatants of homogenized myocardium. One unit of MPO is defined as the quantity of enzyme hydrolyzing […] of peroxide per minute at 25° C.

Substance: etanercept
- benefit upon functional status or survival in congestive heart failure (congestive heart failure; human clinical trials (Anker et al., 2002)): no significant benefits
- safety of administration in patients with heart failure (congestive heart failure; human, in vivo): safe
- leukocyte infiltration, myeloperoxidase ratio of ischemic to normal tissue ([1]; Model 2, n=7, saline 11±2.6): 1.8±0.2
- decrease in leukocyte accumulation within ischemically injured myocardium ([1]; Model 2, versus saline): 9 fold
